From US11179376B2, “Salts of pyrazolo[1,5-a]pyridine derivative and use thereof” (SUNSHINE LAKE PHARMA CO., LTD., priority 2017, dated 2021)
Where a name gives a salt, the structure may show the parent alone. Read-outs that look alike come from different tables or passages of the source.

Test: Pharmacokinetics test in beagle dogs (capsule by gavage, plasma LC/MS/MS)
Assay type: in vivo
Procedure: The LC/MS/MS system used in the analysis consists of an Agilent 1200 Series vacuum degasser, binary pump, well-plate autosampler, thermostated column compartment, the Agilent G6430 Triple Quadrupole Mass Spectrometer with an electrosprayionization (ESI) source. Quantitative analysis was carried out using MRM mode. The parameters for MRM transitions are in the Table A.
An Agilent XDB-C18, 2.1×30 mm, 3.5 μM column was used for the analysis. 5 μL of the samples were injected. Analysis condition: The mobile phase was 0.1% formic acid in water (A) and 0.1% formic acid in methanol (B). The flow rate was 0.4 mL/min. And the gradient of Mobile phase was in the Table B.
An ESI source was used on the LC/MS/MS spectrometer. The analysis was done in positive ion mode as appropriate and the MRM transition for each analyte was optimized using standard solution. A Capcell MP-C18 100×4.6 mm I.D., […] column (Phenomenex, Torrance, Calif., USA) was used during the analysis. The mobile phase was 5 mM ammonia acetate, 0.1% MeOH in water (A): 5 mM ammonia acetate, 0.1% MeOH in acetonitrile (B) (70/30, v/v). The flow rate was 0.6 mL/min. Column was maintained at ambient temperature. 20 μL of the samples were injected.
The blood samples (0.3 mL) were drawn at 0.25, 0.5, 1.0, 2.0, 3.0, 4.0, 6.0, 8.0, 12 and 24 hour time points or 0.083, 0.25, 0.5, 1.0, 2.0, 4.0, 6.0, 8.0 and 24 hour time points and centrifuged at 3,000 or 4000 rpm for 2 to 10 min. The plasma solutions were collected, and analyzed by LC/MS/MS as described above. The pharmacokinetic parameters were calculated according to non-compartment model using WinNonlin procedure.

[1] = capsule by gavage, dose 2.5 mg/kg, plasma

SMILES	AUC(0-t) (dog, po, capsule by gavage, dose 2.5 mg/kg, plasma)	Cmax (dog, po, capsule by gavage, dose 2.5 mg/kg, plasma, read-out: Cmax)	Tmax (dog, po, capsule by gavage, dose 2.5 mg/kg, plasma, read-out: Tmax)	exposure and bioavailability in vivo (Cmax and AUClast much larger than those of compound of formula (I))	AUClast [1]	Cmax [1]	Tmax [1]
COc1ncc(-c2ccn3ncc(C#N)c3c2)cc1NS(=O)(=O)c1ccc(F)cc1F [Compound of formula (I), N-(5-(3-cyanopyrazolo[1,5-α]pyridin-5-yl)-2-methoxypyridin-3-yl)-2,4-difluorobenzenesulfonamide]	1550 ng·h/mL	482 ng/mL	1.67 h	–	–	–	–
COc1ncc(-c2ccn3ncc(C#N)c3c2)cc1NS(=O)(=O)c1ccc(F)cc1F [N-(5-(3-cyanopyrazolo[1,5-α]pyridin-5-yl)-2-methoxypyridin-3-yl)-2,4-difluorobenzenesulfonamide]	–	–	–	good exposure and bioavailability	8420 ng·h/mL	3050 ng/mL	0.667 h
COc1ncc(-c2ccn3ncc(C#N)c3c2)cc1NS(=O)(=O)c1ccc(F)cc1F [amorphous form of mono-sodium salt, N-(5-(3-cyanopyrazolo[1,5-α]pyridin-5-yl)-2-methoxypyridin-3-yl)-2,4-difluorobenzenesulfonamide]	–	–	–	–	7290 ng·h/mL	2180 ng/mL	1.33 h
COc1ncc(-c2ccn3ncc(C#N)c3c2)cc1NS(=O)(=O)c1ccc(F)cc1F [crystalline form A of mono-choline salt, N-(5-(3-cyanopyrazolo[1,5-α]pyridin-5-yl)-2-methoxypyridin-3-yl)-2,4-difluorobenzenesulfonamide]	–	–	–	–	9130 ng·h/mL	3220 ng/mL	1.08 h
COc1ncc(-c2ccn3ncc(C#N)c3c2)cc1NS(=O)(=O)c1ccc(F)cc1F [crystalline form A of mono-lithium salt, N-(5-(3-cyanopyrazolo[1,5-α]pyridin-5-yl)-2-methoxypyridin-3-yl)-2,4-difluorobenzenesulfonamide]	–	–	–	–	4290 ng·h/mL	1640 ng/mL	1.5 h
COc1ncc(-c2ccn3ncc(C#N)c3c2)cc1NS(=O)(=O)c1ccc(F)cc1F [crystalline form A of mono-sodium salt, N-(5-(3-cyanopyrazolo[1,5-α]pyridin-5-yl)-2-methoxypyridin-3-yl)-2,4-difluorobenzenesulfonamide]	–	–	–	–	8730 ng·h/mL	2820 ng/mL	2.5 h
COc1ncc(-c2ccn3ncc(C#N)c3c2)cc1NS(=O)(=O)c1ccc(F)cc1F [crystalline form B of mono-sodium salt, N-(5-(3-cyanopyrazolo[1,5-α]pyridin-5-yl)-2-methoxypyridin-3-yl)-2,4-difluorobenzenesulfonamide]	–	–	–	–	9370 ng·h/mL	4530 ng/mL	0.583 h
COc1ncc(-c2ccn3ncc(C#N)c3c2)cc1NS(=O)(=O)c1ccc(F)cc1F [crystalline form C of mono-sodium salt, N-(5-(3-cyanopyrazolo[1,5-α]pyridin-5-yl)-2-methoxypyridin-3-yl)-2,4-difluorobenzenesulfonamide]	–	–	–	–	5700 ng·h/mL	1410 ng/mL	2.33 h
